Assay results as given in patent US4684664A, “Derivatives of β-(4-isocyano-1,2,3,4-diepoxycyclopentyl) acrylic acid” (Kureha Kagaku Kogyo Kabushiki Kaisha, priority 1984, dated 1987).
In brackets after ≈: the same amount, converted by molar mass.

How the values were obtained:
Format in all cases: cell-based
[1] = test system: Bacillus subtilis ATCC 6633; experiment: Antibacterial activity, agar-dilution MIC, organism No. 14
Summary of the method: (§1)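 Testing uses agar dilution in bouillon agar. MIC = lowest inhibiting concentration, μg/ml medium.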

[2] = test system: Proteus morganii IFO 3848; experiment: Antibacterial activity, agar-dilution MIC, organism No. 18
Summary of the method: as §1

[3] = test system: Pseudomonas aeruginosa IFO 3445; experiment: Antibacterial activity, agar-dilution MIC, organism No. 15
Summary of the method: as §1

[4] = test system: Salmonella paratyphi-A 1015; experiment: Antibacterial activity, agar-dilution MIC, organism No. 10
Summary of the method: as §1

[5] = test system: Salmonella enteritidis G 14; experiment: Antibacterial activity, agar-dilution MIC, organism No. 12
Summary of the method: as §1

[6] = test system: Staphylococcus aureus FDA 209PJc-1; experiment: Antibacterial activity, agar-dilution MIC, organism No. 1
Summary of the method: as §1

[7] = test system: Escherichia coli K12 C600 IAM 1264; experiment: Antibacterial activity, agar-dilution MIC, organism No. 6
Summary of the method: as §1

[8] = test system: Staphylococcus aureus MS 353; experiment: Antibacterial activity, agar-dilution MIC, organism No. 3
Summary of the method: as §1

[9] = test system: Streptococcus faecium IFO 3826; experiment: Antibacterial activity, agar-dilution MIC, organism No. 27
Summary of the method: as §1

[10] = test system: Proteus rettgeri IFO 3850; experiment: Antibacterial activity, agar-dilution MIC, organism No. 22
Summary of the method: as §1

[11] = test system: Candida albicans IAM 4905; experiment: Antifungal activity, agar-dilution MIC, organism No. 29
Summary of the method: as §1

Proteus vulgaris OX-19 = experiment: Antibacterial activity, agar-dilution MIC, organism No. 20
Summary of the method: as §1

[12] = test system: Serratia marcescens IAM 1184; experiment: Antibacterial activity, agar-dilution MIC, organism No. 13
Text: Agar-dilution method was used for determination of the antibacterial activity and antifungal activity while using bouillon-agar culture medium, and the minimum inhibitory concentration of the specimen was expressed by μg/ml of the culture medium.

[13] = test system: Streptococcus pyogenes IFO 3340; experiment: Antibacterial activity, agar-dilution MIC, organism No. 26
Summary of the method: as §1

[14] = test system: Aspergillus niger IFO 6342; experiment: Antifungal activity, agar-dilution MIC, organism No. 30
Summary of the method: as §1

[15] = test system: Klebsiella pneumoniae PCI-602; experiment: Antibacterial activity, agar-dilution MIC, organism No. 7
Summary of the method: as §1

[16] = test system: Streptococcus pyogenes Cook; experiment: Antibacterial activity, agar-dilution MIC, organism No. 4
Summary of the method: as §1

[17] = test system: Micrococcus luteus ATCC 9341; experiment: Antibacterial activity, agar-dilution MIC, organism No. 25
Summary of the method: as §1

[18] = test system: Proteus mirabilis IFO 3849; experiment: Antibacterial activity, agar-dilution MIC, organism No. 19
Summary of the method: as §1

Enterobacter cloacae 963 = experiment: Antibacterial activity, agar-dilution MIC, organism No. 24
Summary of the method: as §1

[19] = test system: Pseudomonas aeruginosa NCTC 10490; experiment: Antibacterial activity, agar-dilution MIC, organism No. 16
Summary of the method: as §1

Salmonella typhi 901 = experiment: Antibacterial activity, agar-dilution MIC, organism No. 9
Summary of the method: as §1

[20] = test system: Staphylococcus aureus Terajima; experiment: Antibacterial activity, agar-dilution MIC, organism No. 2
Summary of the method: as §1

[21] = test system: Salmonella typhimurium IID 971; experiment: Antibacterial activity, agar-dilution MIC, organism No. 8
Summary of the method: as §1

[22] = test system: Escherichia coli NIHJ-JC-2; experiment: Antibacterial activity, agar-dilution MIC, organism No. 5
Summary of the method: as §1

[23] = test system: Enterobacter aerogenes ATCC 13048; experiment: Antibacterial activity, agar-dilution MIC, organism No. 23
Summary of the method: as §1

[24] = test system: Pseudomonas aeruginosa PAO 1; experiment: Antibacterial activity, agar-dilution MIC, organism No. 17
Summary of the method: as §1

Proteus vulgaris HX-19 = experiment: Antibacterial activity, agar-dilution MIC, organism No. 21
Summary of the method: as §1

[25] = test system: Salmonella shottmuelleri 8006; experiment: Antibacterial activity, agar-dilution MIC, organism No. 11
Summary of the method: as §1

Molecule [C-]#[N+]C12CC3(/C=C/C(=O)NCCO)OC3C1O2 (stereo not shown) [compound 68] has an MIC ([1]; Bacillus subtilis, ATCC6633, read-out: Minimum Inhibitory Concentration) of 100 mg/L (≈ 423 µM), an MIC ([2]; Morganella morganii, IFO3848, read-out: Minimum Inhibitory Concentration) of 6.25 mg/L (≈ 26.5 µM) and an MIC ([3]; Pseudomonas aeruginosa, IFO3445, read-out: Minimum Inhibitory Concentration) greater than 200 mg/L. For the same molecule, the MIC ([4]; Salmonella enterica, PARATYPHI, read-out: Minimum Inhibitory Concentration) was 12.5 mg/L (≈ 52.9 µM), the MIC ([5]; Salmonella enterica, ENTERITIDIS, read-out: Minimum Inhibitory Concentration) was 6.25 mg/L (≈ 26.5 µM) and the MIC ([6]; Staphylococcus aureus, FDA209PJC1, read-out: Minimum Inhibitory Concentration) was 3.13 mg/L (≈ 13.2 µM). For the same molecule, the MIC ([7]; Escherichia coli, IAM1264, read-out: Minimum Inhibitory Concentration) was 25 mg/L (≈ 106 µM), the MIC ([8]; Staphylococcus aureus, MS353, read-out: Minimum Inhibitory Concentration) was 6.25 mg/L (≈ 26.5 µM) and the MIC ([9]; Enterococcus faecium, IFO3826, read-out: Minimum Inhibitory Concentration) was 200 mg/L (≈ 847 µM). For the same molecule, the MIC ([10]; Providencia rettgeri, IFO3850, read-out: Minimum Inhibitory Concentration) was 200 mg/L (≈ 847 µM), the MIC ([11]; Candida albicans, IAM4905, read-out: Minimum Inhibitory Concentration) was 100 mg/L (≈ 423 µM) and the MIC (Proteus vulgaris OX-19; Proteus vulgaris, OX19, read-out: Minimum Inhibitory Concentration) was 12.5 mg/L (≈ 52.9 µM). The MIC ([12]; Serratia marcescens, IAM1184, read-out: Minimum Inhibitory Concentration) was 100 mg/L (≈ 423 µM), the MIC ([13]; Streptococcus pyogenes, IFO3340, read-out: Minimum Inhibitory Concentration) was 12.5 mg/L (≈ 52.9 µM) and the MIC ([14]; Aspergillus niger, IFO6342, read-out: Minimum Inhibitory Concentration) was 100 mg/L (≈ 423 µM). It also gave an MIC ([15]; Klebsiella pneumoniae, PCI602, read-out: Minimum Inhibitory Concentration) of 200 mg/L (≈ 847 µM), an MIC ([16]; Streptococcus pyogenes, read-out: Minimum Inhibitory Concentration) of 200 mg/L (≈ 847 µM) and an MIC ([17]; Micrococcus luteus, ATCC9341, read-out: Minimum Inhibitory Concentration) of 6.25 mg/L (≈ 26.5 µM). For the same molecule, the MIC ([18]; Proteus mirabilis, IFO3849, read-out: Minimum Inhibitory Concentration) was 200 mg/L (≈ 847 µM), the MIC (Enterobacter cloacae 963; Enterobacter cloacae, 963, read-out: Minimum Inhibitory Concentration) was greater than 200 mg/L and the MIC ([19]; Pseudomonas aeruginosa, NCTC10490, read-out: Minimum Inhibitory Concentration) was greater than 200 mg/L. The MIC (Salmonella typhi 901; Salmonella enterica, TYPHI, read-out: Minimum Inhibitory Concentration) was 6.25 mg/L (≈ 26.5 µM), the MIC ([20]; Staphylococcus aureus, read-out: Minimum Inhibitory Concentration) was 25 mg/L (≈ 106 µM) and the MIC ([21]; Salmonella enterica, read-out: Minimum Inhibitory Concentration) was 25 mg/L (≈ 106 µM). The MIC ([22]; Escherichia coli, NIHJJC2, read-out: Minimum Inhibitory Concentration) was 25 mg/L (≈ 106 µM), the MIC ([23]; Klebsiella aerogenes, ATCC13048, read-out: Minimum Inhibitory Concentration) was greater than 200 mg/L and the MIC ([24]; Pseudomonas aeruginosa, PAO1, read-out: Minimum Inhibitory Concentration) was greater than 200 mg/L. It also gave an MIC (Proteus vulgaris HX-19; Proteus vulgaris, HX19, read-out: Minimum Inhibitory Concentration) of 6.25 mg/L (≈ 26.5 µM) and an MIC ([25]; Salmonella, 8006, read-out: Minimum Inhibitory Concentration) of 25 mg/L (≈ 106 µM).

With [C-]#[N+]C12CC3(/C=C/C(=O)NC4OC(COC(C)=O)C(OC(C)=O)C(OC(C)=O)C4OC(C)=O)OC3C1O2 (stereo not shown) [compound 69] the “Minimum Inhibitory Concentration” value ([1]; Organism No. 14, bouillon-agar) was greater than 200 µg/mL, the “Minimum Inhibitory Concentration” value ([2]; Organism No. 18, bouillon-agar) was greater than 200 µg/mL and the “Minimum Inhibitory Concentration” value ([3]; Organism No. 15, bouillon-agar) was greater than 200 µg/mL. For the same molecule, the “Minimum Inhibitory Concentration” value ([4]; Organism No. 10, bouillon-agar) was 200 µg/mL, the “Minimum Inhibitory Concentration” value ([5]; Organism No. 12, bouillon-agar) was greater than 200 µg/mL and the “Minimum Inhibitory Concentration” value ([6]; Organism No. 1, bouillon-agar) was 100 µg/mL. The “Minimum Inhibitory Concentration” value ([7]; Organism No. 6, bouillon-agar) was greater than 200 µg/mL, the “Minimum Inhibitory Concentration” value ([8]; Organism No. 3, bouillon-agar) was 100 µg/mL and the “Minimum Inhibitory Concentration” value ([9]; Organism No. 27, bouillon-agar) was greater than 200 µg/mL. For the same molecule, the “Minimum Inhibitory Concentration” value ([10]; Organism No. 22, bouillon-agar) was greater than 200 µg/mL, the “Minimum Inhibitory Concentration” value ([11]; Organism No. 29, bouillon-agar) was 100 µg/mL and the “Minimum Inhibitory Concentration” value (Proteus vulgaris OX-19; Organism No. 20, bouillon-agar) was greater than 200 µg/mL. The “Minimum Inhibitory Concentration” value ([12]; Organism No. 13, bouillon-agar) was greater than 200 µg/mL, the “Minimum Inhibitory Concentration” value ([13]; Organism No. 26, bouillon-agar) was 50 µg/mL and the “Minimum Inhibitory Concentration” value ([14]; Organism No. 30, bouillon-agar) was 100 µg/mL. The “Minimum Inhibitory Concentration” value ([15]; Organism No. 7, bouillon-agar) was greater than 200 µg/mL, the “Minimum Inhibitory Concentration” value ([16]; Organism No. 4, bouillon-agar) was greater than 200 µg/mL and the “Minimum Inhibitory Concentration” value ([17]; Organism No. 25, bouillon-agar) was 100 µg/mL. The “Minimum Inhibitory Concentration” value ([18]; Organism No. 19, bouillon-agar) was greater than 200 µg/mL, the “Minimum Inhibitory Concentration” value (Enterobacter cloacae 963; Organism No. 24, bouillon-agar) was greater than 200 µg/mL and the “Minimum Inhibitory Concentration” value ([19]; Organism No. 16, bouillon-agar) was greater than 200 µg/mL. For the same molecule, the “Minimum Inhibitory Concentration” value (Salmonella typhi 901; Organism No. 9, bouillon-agar) was greater than 200 µg/mL, the “Minimum Inhibitory Concentration” value ([20]; Organism No. 2, bouillon-agar) was greater than 200 µg/mL and the “Minimum Inhibitory Concentration” value ([21]; Organism No. 8, bouillon-agar) was greater than 200 µg/mL. The “Minimum Inhibitory Concentration” value ([22]; Organism No. 5, bouillon-agar) was greater than 200 µg/mL, the “Minimum Inhibitory Concentration” value ([23]; Organism No. 23, bouillon-agar) was greater than 200 µg/mL and the “Minimum Inhibitory Concentration” value ([24]; Organism No. 17, bouillon-agar) was greater than 200 µg/mL. For the same molecule, the “Minimum Inhibitory Concentration” value (Proteus vulgaris HX-19; Organism No. 21, bouillon-agar) was greater than 200 µg/mL and the “Minimum Inhibitory Concentration” value ([25]; Organism No. 11, bouillon-agar) was greater than 200 µg/mL.
